Results reported in patent publication US8471005B2 (Cephalon, Inc., priority 2008, dated 2013).
Like-named read-outs stand apart in the source and are kept apart here.

Columns and labels:
ALK = target: T1, ALK (Homo sapiens, UniProt Q9UM73); assay: ALK Kinase Assay (ELISA/TRF, PLC-γ substrate); assay type: biochemical; conditions: read-out: ALK Potency
T1 construct: host or cells: baculovirus expression system
How it was run: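 PLC-γ substrate coated at 10 μg/mL in TBS; reaction started with 30 ng/ml ALK, run 15 min at 37° C. Phosphoproduct detected by TRF with Eu-N1-labeled PT66 anti-phosphotyrosine antibody. IC50 from sigmoidal variable-slope fit of percent inhibition versus log concentration.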

JAK2 = target: T2, JAK2 (Homo sapiens, UniProt O60674); assay: Recombinant Human JAK2 Kinase Assay (TRF); assay type: biochemical; conditions: read-out: JAK2 Potency
T2 construct: host or cells: baculovirus expression system
How it was run: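 Europium-labelled PY100 antibody reported tyrosine phosphorylation of a Neutravidin-captured biotinyl 15-mer peptide by JAK2 (baculovirus-expressed, 15 ng/ml). Conditions: 20 mM HEPES pH 7.2, 0.2 μM ATP, 1 mM MnCl2, 0.1% BSA, DMSO 2.5% final, 20 min at room temperature.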

[1] = ALK kinase inhibition, 1 μM ATP
[2] = JAK2 kinase inhibition, 0.2 μM ATP

T1 sequence (Q9UM73 19-1620): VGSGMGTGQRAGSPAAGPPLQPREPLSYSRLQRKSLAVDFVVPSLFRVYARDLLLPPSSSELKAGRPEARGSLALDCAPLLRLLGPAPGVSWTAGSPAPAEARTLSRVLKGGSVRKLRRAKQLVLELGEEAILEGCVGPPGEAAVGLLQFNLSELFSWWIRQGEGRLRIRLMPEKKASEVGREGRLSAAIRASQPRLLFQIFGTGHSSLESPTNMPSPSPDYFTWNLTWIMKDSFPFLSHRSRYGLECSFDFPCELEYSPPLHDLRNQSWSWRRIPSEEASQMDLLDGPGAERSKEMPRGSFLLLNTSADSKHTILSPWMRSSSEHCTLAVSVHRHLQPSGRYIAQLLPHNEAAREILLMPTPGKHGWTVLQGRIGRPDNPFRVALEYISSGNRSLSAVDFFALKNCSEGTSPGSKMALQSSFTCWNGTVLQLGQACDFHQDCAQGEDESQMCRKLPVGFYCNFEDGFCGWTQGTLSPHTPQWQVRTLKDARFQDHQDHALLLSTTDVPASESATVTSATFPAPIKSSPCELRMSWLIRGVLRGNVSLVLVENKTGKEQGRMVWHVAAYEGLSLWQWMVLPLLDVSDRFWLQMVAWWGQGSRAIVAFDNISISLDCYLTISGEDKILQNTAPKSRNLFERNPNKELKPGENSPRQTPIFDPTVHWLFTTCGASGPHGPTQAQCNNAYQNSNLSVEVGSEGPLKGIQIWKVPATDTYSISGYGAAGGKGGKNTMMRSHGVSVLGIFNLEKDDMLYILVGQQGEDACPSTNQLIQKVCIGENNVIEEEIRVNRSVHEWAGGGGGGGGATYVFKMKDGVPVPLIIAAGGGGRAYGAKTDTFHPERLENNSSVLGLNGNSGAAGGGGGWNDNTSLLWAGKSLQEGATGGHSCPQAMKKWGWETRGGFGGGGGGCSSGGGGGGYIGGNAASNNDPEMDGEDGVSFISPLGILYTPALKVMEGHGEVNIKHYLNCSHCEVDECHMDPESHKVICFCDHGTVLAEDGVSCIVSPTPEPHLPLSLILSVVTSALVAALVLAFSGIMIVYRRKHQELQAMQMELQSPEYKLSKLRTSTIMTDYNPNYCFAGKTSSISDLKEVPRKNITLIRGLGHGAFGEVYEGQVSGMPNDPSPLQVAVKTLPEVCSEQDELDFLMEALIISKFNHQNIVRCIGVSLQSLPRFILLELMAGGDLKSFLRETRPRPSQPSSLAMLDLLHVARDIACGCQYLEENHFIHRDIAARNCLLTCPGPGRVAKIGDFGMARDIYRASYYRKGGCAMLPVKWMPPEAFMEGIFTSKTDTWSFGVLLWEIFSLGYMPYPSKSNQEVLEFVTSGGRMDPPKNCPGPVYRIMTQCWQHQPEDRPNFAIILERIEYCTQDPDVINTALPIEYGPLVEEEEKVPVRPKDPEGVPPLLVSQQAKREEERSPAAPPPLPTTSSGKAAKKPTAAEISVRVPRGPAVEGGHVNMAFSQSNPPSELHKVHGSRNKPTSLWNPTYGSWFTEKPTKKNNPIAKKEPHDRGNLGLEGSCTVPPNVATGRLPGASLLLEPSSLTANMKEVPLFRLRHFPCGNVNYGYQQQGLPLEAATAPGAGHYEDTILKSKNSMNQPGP
T2 sequence (O60674 whole entry): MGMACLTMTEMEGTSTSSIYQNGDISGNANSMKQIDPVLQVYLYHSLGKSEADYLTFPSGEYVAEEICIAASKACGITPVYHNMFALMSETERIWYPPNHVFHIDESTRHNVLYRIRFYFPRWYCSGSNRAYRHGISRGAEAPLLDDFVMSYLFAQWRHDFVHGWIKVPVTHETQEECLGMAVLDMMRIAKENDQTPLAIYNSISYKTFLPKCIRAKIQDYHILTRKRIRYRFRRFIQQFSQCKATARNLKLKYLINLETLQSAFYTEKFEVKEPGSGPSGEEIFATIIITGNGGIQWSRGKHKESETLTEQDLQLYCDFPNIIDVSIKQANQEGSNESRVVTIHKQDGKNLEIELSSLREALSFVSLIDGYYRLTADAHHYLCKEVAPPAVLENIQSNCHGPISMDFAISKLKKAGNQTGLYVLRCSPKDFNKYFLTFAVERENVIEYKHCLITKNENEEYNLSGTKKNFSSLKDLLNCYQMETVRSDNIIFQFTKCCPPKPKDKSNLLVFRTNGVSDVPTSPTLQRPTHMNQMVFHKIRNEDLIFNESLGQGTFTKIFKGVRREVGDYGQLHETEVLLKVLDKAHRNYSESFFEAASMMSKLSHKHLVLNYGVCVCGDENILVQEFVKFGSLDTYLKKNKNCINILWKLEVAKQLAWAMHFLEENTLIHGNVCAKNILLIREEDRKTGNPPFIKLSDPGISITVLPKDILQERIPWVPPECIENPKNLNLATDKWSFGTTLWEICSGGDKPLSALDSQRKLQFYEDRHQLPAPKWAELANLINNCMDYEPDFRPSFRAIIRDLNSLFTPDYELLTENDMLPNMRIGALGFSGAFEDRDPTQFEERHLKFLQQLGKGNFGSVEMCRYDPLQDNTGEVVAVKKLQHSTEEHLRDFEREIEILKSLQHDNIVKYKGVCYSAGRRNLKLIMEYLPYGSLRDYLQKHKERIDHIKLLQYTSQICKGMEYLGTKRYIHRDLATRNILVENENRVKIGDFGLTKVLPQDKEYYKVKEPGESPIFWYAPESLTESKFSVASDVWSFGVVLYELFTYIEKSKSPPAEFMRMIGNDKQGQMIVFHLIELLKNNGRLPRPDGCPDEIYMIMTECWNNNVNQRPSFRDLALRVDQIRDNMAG

| IC50 (ALK; ALK Kinase Inhibition) [µM] | IC50 (JAK2; JAK2 Kinase Inhibition) [µM] | IC50 (ALK; [1]) [µM] | IC50 (JAK2; [2]) [µM] | Compound |
| --- | --- | --- | --- | --- |
|  |  | 0.1 to 1 | < 0.1 | CN1CCN(c2cccc(Nc3ncc4ccc(-c5cn[nH]c5)n4n3)c2)CC1 [Example 970, [3-(4-Methyl-piperazin-1-yl)-phenyl]-[7-(1H-pyrazol-4yl)-pyrrolo[2,1-f][1,2,4]triazin-2-yl]-amine] |
| 0.1 to 1 | < 0.1 |  |  | CC(C)(C)NS(=O)(=O)c1cccc(-c2ccc3cnc(Nc4ccc(F)c(N5CCOCC5)c4)nn23)c1 [Example 1394, N-tert-Butyl-3-[2-(4-fluoro-3-morpholin-4-yl-phenylamino)-pyrrolo[2,1-f][1,2,4]triazin-7-yl]-benzenesulfonamide] |
|  |  | < 0.1 | < 0.1 | COc1ccccc1-c1ccc2cnc(Nc3ccc4c(c3)CCC(N3CCOCC3)CC4)nn12 (centres unmarked) [Example 614, [7-(2-methoxy-phenyl)-pyrrolo[2,1-f][1,2,4]triazin-2-yl]-(7-morpholin-4-yl-6,7,8,9-tetrahydro-5H-benzocyclohepten-2-yl)amine] |
|  |  | 0.1 to 1 | < 0.1 | CCN(CC)C1CCN(c2ccc(Nc3ncc4ccc(-c5cccc(NS(=O)(=O)C(C)(C)C)c5)n4n3)cc2)CC1 [Example 1205, 2-Methyl-propane-2-sulfonic acid (3-{2-[4-(4-diethylamino-piperidin-1-yl)-phenylamino]-pyrrolo[2,1-f][1,2,4]triazin-7-yl}-phenyl)-amide] |
|  |  | 0.1 to 1 | < 0.1 | N#CCCc1cccc(-c2ccc3cnc(Nc4ccc(N5CCOCC5)cc4)nn23)c1 [Example 1145, 3-{3-[2-(4-Morpholin-4-yl-phenylamino)-pyrrolo[2,1-f][1,2,4]triazin-7-yl]-phenyl}-propionitrile] |
|  |  | 1 to 10 | < 0.1 | CC(=O)Nc1cccc(Nc2ncc3ccc(-c4ccc[nH]4)n3n2)c1 [Example 1292, N-{3-[7-(1H-Pyrrol-2-yl)-pyrrolo[2,1-f][1,2,4]triazin-2-ylamino]-phenyl}-acetamide] |
|  |  | 0.1 to 1 | < 0.1 | CN1CCN(C(=O)C2CCN(c3ccc(Nc4ncc5ccc(-c6cnn(C)c6)n5n4)cc3)CC2)CC1 [Example 1188, (4-Methyl-piperazin-1-yl)-(1-{4-[7-(1-methyl-1H-pyrazol-4-yl)-pyrrolo[2,1-f][1,2,4]triazin-2-ylamino]-phenyl}-piperidin-4-yl)-methanone] |
| 1 to 10 | < 0.1 |  |  | CC(=O)N1CCCC(C)(C)c2ccc(Nc3ncc4ccc(-c5cnn(C)c5)n4n3)cc21 [Example 1381, 1-{5,5-Dimethyl-8-[7-(1-methyl-1H-pyrazol-4-yl)-pyrrolo[2,1-f][1,2,4]triazin-2-ylamino]-2,3,4,5-tetrahydro-benzo[b]azepin-1-yl}-ethanone] |
| < 0.1 | 0.1 to 1 |  |  | COc1cc(N2CCC(CN3CCN(C)CC3)CC2)ccc1Nc1ncc2ccc(-c3ccccc3OC)n2n1 [Example 468, {2-Methoxy-4-[4-(4-methyl-piperazin-1-ylmethyl)-piperidin-1-yl]-phenyl}-[7-(2-methoxy-phenyl)-pyrrolo[2,1-f][1,2,4]triazin-2-yl]-amine] |
| 0.1 to 1 | < 0.1 |  |  | COc1ccc(-c2ccc3cnc(Nc4ccc(C5CCN(CC(N)=O)CC5)cc4)nn23)cn1 [Example 1413, 2-(4-{4-[7-(6-Methoxy-pyridin-3-yl)-pyrrolo[2,1-f][1,2,4]triazin-2-ylamino]-phenyl}-piperidin-1-yl)-acetamide] |
| 0.1 to 1 | < 0.1 |  |  | CC(C)(C)NS(=O)(=O)c1cccc(-c2ccc3cnc(Nc4cccc(-n5cnnc5)c4)nn23)c1 [Example 1391, N-tert-Butyl-3-[2-(3-[1,2,4]triazol-4-yl-phenylamino)-pyrrolo[2,1-f][1,2,4]triazin-7-yl]-benzenesulfonamide] |
| 0.1 to 1 | < 0.1 |  |  | CCCS(=O)(=O)Nc1cccc(-c2ccc3cnc(Nc4ccc(N5CCOCC5)cc4)nn23)c1 [Example 418, Propane-1-sulfonic acid {3-[2-(4-morpholin-4-yl-phenylamino)-pyrrolo[2,1-f][1,2,4]triazin-7-yl]-phenyl}-amide] |
|  |  | < 0.1 | < 0.1 | COc1ccc(-c2ccc3cnc(Nc4ccc(C5CCN(CC(N)=O)CC5)c(C)c4)nn23)cn1 [Example 934, 2-(4-{4-[7-(6-Methoxy-pyridin-3-yl)-pyrrolo[2,1-f][1,2,4]triazin-2-ylamino]-2-methyl-phenyl}-piperidin-1-yl)-acetamide] |
| < 0.1 | < 0.1 |  |  | CCCS(=O)(=O)Nc1cccc(-c2ccc3cnc(Nc4ccc(N5CCN(C)CC5)cc4)nn23)c1 [Example 417, Propane-1-sulfonic acid (3-{2-[4-(4-methyl-piperazin-1-yl)-phenylamino]-pyrrolo[2,1-f][1,2,4]triazin-7-yl}-phenyl)-amide] |
| 1 to 10 | < 0.1 |  |  | CC(C)S(=O)(=O)c1ccc(-c2ccc3cnc(Nc4cccc(N5CCOCC5)c4)nn23)cc1 [Example 192, (3-Morpholin-4-yl-phenyl)-{7-[4-(propane-2-sulfonyl)-phenyl]-pyrrolo[2,1-f][1,2,4]triazin-2-yl}-amine] |

More lines, now with the values behind:

| Compound | IC50 (ALK; ALK Kinase Inhibition) [µM] | IC50 (JAK2; JAK2 Kinase Inhibition) [µM] | IC50 (ALK; [1]) [µM] | IC50 (JAK2; [2]) [µM] |
| --- | --- | --- | --- | --- |
| COc1ccccc1-c1ccc2cnc(Nc3ccc4c(c3OC)CCC(N3CCOCC3)CC4)nn12 (centres unmarked) [Example 1452, (1-Methoxy-7-morpholin-4-yl-6,7,8,9-tetrahydro-5H-benzo cyclohepten-2-yl)-[7-(2-methoxy-phenyl)-pyrrolo[2,1-f][1,2,4]triazin-2-yl]-amine] | < 0.1 | 0.1 to 1 |  |  |
| COc1ccc(-c2ccc3cnc(Nc4cncc(C(N)=O)c4)nn23)cn1 [Example 667, 5-[7-(6-Methoxy-pyridin-3-yl)-pyrrolo[2,1-f][1,2,4]triazin-2-ylamino]-nicotinamide] |  |  | 0.1 to 1 | < 0.1 |
| CN1CCN(C(=O)C2CCN(c3ccc(Nc4ncc5ccc(-c6ccc(S(C)(=O)=O)cc6)n5n4)cc3)CC2)CC1 [Example 445, (1-{4-[7-(4-Methanesulfonyl-phenyl)-pyrrolo[2,1-f][1,2,4]triazin-2-ylamino]-phenyl}-piperidin-4-yl)-(4-methyl-piperazin-1-yl)-methanone] | 0.1 to 1 | < 0.1 |  |  |
| COc1cc(-c2ccc3cnc(Nc4ccc(C5CN(CC(N)=O)C5)cc4)nn23)c(OC)nn1 [Example 581, 2-(3-{4-[7-(3,6-Dimethoxy-pyridazin-4-yl)-pyrrolo[2,1-f][1,2,4]triazin-2-ylamino]-phenyl}-azetidin-1-yl)-acetamide] |  |  | 0.1 to 1 | < 0.1 |
| CN1CCOc2ccc(Nc3ncc4ccc(-c5cccnc5)n4n3)cc21 [Example 642, (4-Methyl-3,4-dihydro-2H-benzo[1,4]oxazin-6-yl)-(7-pyridin-3-yl-pyrrolo[2,1-f][1,2,4]triazin-2-yl)-amine] |  |  | 1 to 10 | < 0.1 |
| Clc1cc(N2CCOCC2)ccc1Nc1ncc2c(Cl)cc(-c3ccccc3)n2n1 [Example 80, (2-Chloro-4-morpholin-4-yl-phenyl)-(5-chloro-7-phenyl-pyrrolo[2,1-f][1,2,4]triazin-2-yl)-amine] | > 10 | < 0.1 |  |  |
| CS(=O)(=O)Nc1cccc(-c2ccc3cnc(Nc4ccc(N5CCC(N6CCOCC6)CC5)cc4)nn23)c1 [Example 636, N-(3-{2-[4-(4-Morpholin-4-yl-piperidin-1-yl)-phenylamino]-pyrrolo[2,1-f][1,2,4]triazin-7-yl}-phenyl)-methanesulfonamide] |  |  | 0.1 to 1 | < 0.1 |
| COc1ccc(-c2ccc3cnc(Nc4ccc(F)c(N5CCOCC5)c4)nn23)cn1 [Example 392, (4-Fluoro-3-morpholin-4-yl-phenyl)-[7-(6-methoxy-pyridin-3-yl)-pyrrolo[2,1-f][1,2,4]triazin-2-yl]-amine] | 1 to 10 | < 0.1 |  |  |
| COc1cc(N2CCCN(C[C@@H](C)O)CC2)ccc1Nc1ncc2ccc(-c3ccccc3OC)n2n1 [Example 766, (R)-1-(4-{3-Methoxy-4-[7-(2-methoxy-phenyl)-pyrrolo[2,1-f][1,2,4]triazin-2-ylamino]-phenyl}-[1,4]diazepan-1-yl)-propan-2-ol] |  |  | < 0.1 | < 0.1 |
| CN(c1ccccc1-c1ccc2cnc(Nc3ccc4c(c3)N(S(C)(=O)=O)CCC4)nn12)S(C)(=O)=O [Example 1062, N-{2-[2-(1-Methanesulfonyl-1,2,3,4-tetrahydro-quinolin-7-ylamino)-pyrrolo[2,1-f][1,2,4]triazin-7-yl]-phenyl}-N-methyl-methanesulfonamide] |  |  | 0.1 to 1 | < 0.1 |
| Cn1cc(-c2ccc3cnc(Nc4cccc(-n5cccn5)c4)nn23)cn1 [Example 964, [7-(1-Methyl-1H-pyrazol-4-yl)pyrrolo[2,1f][1,2,4]triazin-2-yl]-(3-pyrazol-1-yl-phenyl)-amine] |  |  | 1 to 10 | < 0.1 |
| CC(C)C(=O)Nc1cccc(Nc2ncc3ccc(-c4cccc(S(=O)(=O)NC(C)(C)C)c4)n3n2)c1 [Example 1385, N-{3-[7-(3-tert-Butylsulfamoyl-phenyl)-pyrrolo[2,1-f][1,2,4]triazin-2-ylamino]-phenyl}-isobutyramide] | 1 to 10 | < 0.1 |  |  |
| CCN(c1ccccc1-c1ccc2cnc(Nc3ccc(C4CCN(C[C@H](O)CO)CC4)cc3OC)nn12)S(C)(=O)=O [Example 872, N-[2-(2-{4-[1-((S)-2,3-Dihydroxy-propyl)-piperidin-4-yl]-2-methoxy-phenylamino}-pyrrolo[2,1-f][1,2,4]triazin-7-yl)-phenyl]-N-ethyl-methanesulfonamide] |  |  | < 0.1 | 0.1 to 1 |
